Reference: US20260198493A1, “HYDRAZIDE COMPOUND AND AGRICULTURAL/HORTICULTURAL FUNGICIDE” (Nippon Soda Co., Ltd., priority 2022, published 2026)

How the values were obtained:
Botrytis cinerea [1] = assay: Control test of cucumber gray mold (sprayed young cucumber seedlings); format: in vivo; details: 96 h, four days after inoculation; for pest or weed control at 25 ppm: 25 ppm by mass spray; for pest or weed control at 125 ppm: 125 ppm by mass spray
Method: Then, the drug liquid was sprayed onto young cucumber seedlings cultivated in a nursery pot (variety “Jihai”-based, cotyledon stage), and then air-dried. […] They were left still in a moist room at 20° C. Four days after inoculation, leaves of the young cucumber seedlings were visually observed, and the control value was calculated from the lesion area ratio in accordance with the following equation. [formula]

Venturia inaequalis = assay: Control test of apple scab disease (sprayed young apple seedlings); format: in vivo; details: 125 ppm by mass spray, 12 to 14 days after inoculation
Colletotrichum acutatum = assay: Fungicidal effect test against fungi causing apple anthracnose; details: 96 h, read-out: growth inhibition ratio
Botrytis cinerea [2] = format: cell-based; details: 120 h, 25 ppm by volume, Vogel medium, 20° C., five days, dark, read-out: growth inhibition ratio
[3] = system: Erysiphe graminis f.sp.tritici; assay: Control test of wheat powdery mildew disease (sprayed young wheat seedlings); format: in vivo; details: Blumeria graminis, 144 h, 125 ppm by mass spray, six days after inoculation
Fusarium graminearum = assay: microbe, parasite or virus in culture; format: cell-based; details: 96 h, read-out: growth inhibition ratio
Glomerella cingulata = assay: Fungicidal effect test against fungi causing grape ripe rot disease; details: Colletotrichum gloeosporioides, 72 h, read-out: growth inhibition ratio

COC(=O)N(Cc1ccc(C)cc1C)NC(=O)c1cc(C)nnc1Oc1cccc(Cl)c1F [b-23, Methyl 2-(3-(3-chloro-2-fluorophenoxy)-6-methylpyridazine-4-carbonyl)-1-(2,4-dimethylbenzyl)hydrazine-1-carboxylate]
≥ 75%: pest or weed control at 25 ppm (Botrytis cinerea [1]) | pest or weed control at 125 ppm (Botrytis cinerea [1]) | pest or weed control at 125 ppm (Venturia inaequalis) | inhibition of growth at 25 ppm (Colletotrichum acutatum) | inhibition of growth at 25 ppm (Botrytis cinerea [2]) | pest or weed control at 125 ppm [3] | inhibition of growth at 25 ppm (Fusarium graminearum) | inhibition of growth at 25 ppm (Glomerella cingulata)

COC(=O)N(Cc1ccc(C)cc1C)NC(=O)c1cc(C)ncc1Oc1cccc(Br)c1 [b-31]
≥ 75%: pest or weed control at 25 ppm (Botrytis cinerea [1]) | pest or weed control at 125 ppm (Botrytis cinerea [1]) | pest or weed control at 125 ppm (Venturia inaequalis) | inhibition of growth at 25 ppm (Colletotrichum acutatum) | inhibition of growth at 25 ppm (Botrytis cinerea [2]) | pest or weed control at 125 ppm [3] | inhibition of growth at 25 ppm (Fusarium graminearum) | inhibition of growth at 25 ppm (Glomerella cingulata)

COC(=O)N(Cc1ccc(C)cc1C)NC(=O)c1cc(C)nnc1Oc1cccc(Br)c1 [b-55]
≥ 75%: pest or weed control at 25 ppm (Botrytis cinerea [1]) | pest or weed control at 125 ppm (Botrytis cinerea [1]) | pest or weed control at 125 ppm (Venturia inaequalis) | inhibition of growth at 25 ppm (Colletotrichum acutatum) | inhibition of growth at 25 ppm (Botrytis cinerea [2]) | pest or weed control at 125 ppm [3] | inhibition of growth at 25 ppm (Fusarium graminearum) | inhibition of growth at 25 ppm (Glomerella cingulata)

COC(=O)N(Cc1ccc(Br)cc1C)NC(=O)c1cc(C)nnc1Oc1cccc(C2CC2)c1F [b-45]
≥ 75%: pest or weed control at 25 ppm (Botrytis cinerea [1]) | pest or weed control at 125 ppm (Botrytis cinerea [1]) | pest or weed control at 125 ppm (Venturia inaequalis) | inhibition of growth at 25 ppm (Colletotrichum acutatum) | inhibition of growth at 25 ppm (Botrytis cinerea [2]) | pest or weed control at 125 ppm [3] | inhibition of growth at 25 ppm (Fusarium graminearum) | inhibition of growth at 25 ppm (Glomerella cingulata)

CCOC(=O)N(Cc1ccc(C)cc1C)NC(=O)c1cc(C)ncc1Oc1cccc(C2CC2)c1F [b-33]
≥ 75%: pest or weed control at 125 ppm (Botrytis cinerea [1]) | pest or weed control at 125 ppm (Venturia inaequalis) | inhibition of growth at 25 ppm (Colletotrichum acutatum) | inhibition of growth at 25 ppm (Botrytis cinerea [2]) | pest or weed control at 125 ppm [3] | inhibition of growth at 25 ppm (Fusarium graminearum) | inhibition of growth at 25 ppm (Glomerella cingulata)

COC(=O)N(Cc1ccc(C)cc1C)NC(=O)c1cc(Br)ncc1Oc1cccc(C2CC2)c1F [b-67]
≥ 75%: pest or weed control at 25 ppm (Botrytis cinerea [1]) | pest or weed control at 125 ppm (Botrytis cinerea [1]) | pest or weed control at 125 ppm (Venturia inaequalis) | inhibition of growth at 25 ppm (Colletotrichum acutatum) | inhibition of growth at 25 ppm (Botrytis cinerea [2]) | pest or weed control at 125 ppm [3] | inhibition of growth at 25 ppm (Fusarium graminearum) | inhibition of growth at 25 ppm (Glomerella cingulata)

COC(=O)N(Cc1ccc(C)cc1C)NC(=O)c1c(Oc2cccc(C3CC3)c2)cnnc1OC(C)C [b-223]
≥ 75%: pest or weed control at 25 ppm (Botrytis cinerea [1]) | pest or weed control at 125 ppm (Botrytis cinerea [1]) | pest or weed control at 125 ppm (Venturia inaequalis) | inhibition of growth at 25 ppm (Colletotrichum acutatum) | inhibition of growth at 25 ppm (Botrytis cinerea [2]) | pest or weed control at 125 ppm [3] | inhibition of growth at 25 ppm (Fusarium graminearum) | inhibition of growth at 25 ppm (Glomerella cingulata)

COC(=O)N(Cc1ccc(C)cc1C)NC(=O)c1c(C)cnnc1Oc1cccc(C2CC2)c1F [b-228]
≥ 75%: pest or weed control at 25 ppm (Botrytis cinerea [1]) | pest or weed control at 125 ppm (Botrytis cinerea [1]) | pest or weed control at 125 ppm (Venturia inaequalis) | inhibition of growth at 25 ppm (Colletotrichum acutatum) | inhibition of growth at 25 ppm (Botrytis cinerea [2]) | pest or weed control at 125 ppm [3] | inhibition of growth at 25 ppm (Fusarium graminearum) | inhibition of growth at 25 ppm (Glomerella cingulata)

COC(=O)N(Cc1ccc(OC)cc1C)NC(=O)c1c(F)cncc1Oc1cccc(Cl)c1F [b-202]
≥ 75%: pest or weed control at 25 ppm (Botrytis cinerea [1]) | pest or weed control at 125 ppm (Botrytis cinerea [1]) | pest or weed control at 125 ppm (Venturia inaequalis) | inhibition of growth at 25 ppm (Colletotrichum acutatum) | inhibition of growth at 25 ppm (Botrytis cinerea [2]) | pest or weed control at 125 ppm [3] | inhibition of growth at 25 ppm (Fusarium graminearum) | inhibition of growth at 25 ppm (Glomerella cingulata)

COC(=O)N(Cc1ccc(C)cc1C)NC(=O)c1c(OC)cncc1Oc1cccc(C2CC2)c1F [b-208]
≥ 75%: pest or weed control at 25 ppm (Botrytis cinerea [1]) | pest or weed control at 125 ppm (Botrytis cinerea [1]) | pest or weed control at 125 ppm (Venturia inaequalis) | inhibition of growth at 25 ppm (Colletotrichum acutatum) | inhibition of growth at 25 ppm (Botrytis cinerea [2]) | pest or weed control at 125 ppm [3] | inhibition of growth at 25 ppm (Fusarium graminearum) | inhibition of growth at 25 ppm (Glomerella cingulata)

COC(=O)N(Cc1ccc(C)cc1C)NC(=O)c1ccncc1Oc1cccc(Br)c1 [b-145]
≥ 75%: pest or weed control at 25 ppm (Botrytis cinerea [1]) | pest or weed control at 125 ppm (Botrytis cinerea [1]) | pest or weed control at 125 ppm (Venturia inaequalis) | inhibition of growth at 25 ppm (Colletotrichum acutatum) | inhibition of growth at 25 ppm (Botrytis cinerea [2]) | pest or weed control at 125 ppm [3] | inhibition of growth at 25 ppm (Fusarium graminearum) | inhibition of growth at 25 ppm (Glomerella cingulata)

COC(=O)N(Cc1ccc(C)cc1Cl)NC(=O)c1c(C)cncc1Oc1cccc(C2CC2)c1 [b-178]
≥ 75%: pest or weed control at 25 ppm (Botrytis cinerea [1]) | pest or weed control at 125 ppm (Botrytis cinerea [1]) | pest or weed control at 125 ppm (Venturia inaequalis) | inhibition of growth at 25 ppm (Colletotrichum acutatum) | inhibition of growth at 25 ppm (Botrytis cinerea [2]) | pest or weed control at 125 ppm [3] | inhibition of growth at 25 ppm (Fusarium graminearum) | inhibition of growth at 25 ppm (Glomerella cingulata)

COC(=O)N(Cc1ccc(C)cc1C)NC(=O)c1cc(C(F)(F)F)ncc1Oc1cccc(C2CC2)c1F [b-204]
≥ 75%: pest or weed control at 25 ppm (Botrytis cinerea [1]) | pest or weed control at 125 ppm (Botrytis cinerea [1]) | pest or weed control at 125 ppm (Venturia inaequalis) | inhibition of growth at 25 ppm (Colletotrichum acutatum) | inhibition of growth at 25 ppm (Botrytis cinerea [2]) | pest or weed control at 125 ppm [3] | inhibition of growth at 25 ppm (Fusarium graminearum) | inhibition of growth at 25 ppm (Glomerella cingulata)

COC(=O)N(Cc1ccc(OC)cc1C)NC(=O)c1cc(C)ncc1Oc1cccc(Br)c1F [b-108]
≥ 75%: pest or weed control at 25 ppm (Botrytis cinerea [1]) | pest or weed control at 125 ppm (Botrytis cinerea [1]) | pest or weed control at 125 ppm (Venturia inaequalis) | inhibition of growth at 25 ppm (Colletotrichum acutatum) | inhibition of growth at 25 ppm (Botrytis cinerea [2]) | pest or weed control at 125 ppm [3] | inhibition of growth at 25 ppm (Fusarium graminearum) | inhibition of growth at 25 ppm (Glomerella cingulata)

COC(=O)N(Cc1ccc(Br)cc1C)NC(=O)c1cc(C)ncc1Oc1cccc(C2CC2)c1F [b-76]
≥ 75%: pest or weed control at 25 ppm (Botrytis cinerea [1]) | pest or weed control at 125 ppm (Botrytis cinerea [1]) | pest or weed control at 125 ppm (Venturia inaequalis) | inhibition of growth at 25 ppm (Colletotrichum acutatum) | inhibition of growth at 25 ppm (Botrytis cinerea [2]) | pest or weed control at 125 ppm [3] | inhibition of growth at 25 ppm (Fusarium graminearum) | inhibition of growth at 25 ppm (Glomerella cingulata)

CCc1cncc(Oc2cccc(C3CC3)c2F)c1C(=O)NN(Cc1ccc(OC)cc1C)C(=O)OC [b-230]
≥ 75%: pest or weed control at 25 ppm (Botrytis cinerea [1]) | pest or weed control at 125 ppm (Botrytis cinerea [1]) | pest or weed control at 125 ppm (Venturia inaequalis) | inhibition of growth at 25 ppm (Colletotrichum acutatum) | inhibition of growth at 25 ppm (Botrytis cinerea [2]) | pest or weed control at 125 ppm [3] | inhibition of growth at 25 ppm (Fusarium graminearum) | inhibition of growth at 25 ppm (Glomerella cingulata)

COCOc1ccc(CN(NC(=O)c2cc(C)ncc2Oc2cccc(C3CC3)c2F)C(=O)OC)c(C)c1 [b-74]
≥ 75%: pest or weed control at 25 ppm (Botrytis cinerea [1]) | pest or weed control at 125 ppm (Botrytis cinerea [1]) | pest or weed control at 125 ppm (Venturia inaequalis) | inhibition of growth at 25 ppm (Colletotrichum acutatum) | inhibition of growth at 25 ppm (Botrytis cinerea [2]) | pest or weed control at 125 ppm [3] | inhibition of growth at 25 ppm (Fusarium graminearum) | inhibition of growth at 25 ppm (Glomerella cingulata)

COC(=O)N(Cc1ccc(C)cc1C)NC(=O)c1cc(C)nnc1Oc1cccc(C(F)(F)F)c1F [b-36]
≥ 75%: pest or weed control at 25 ppm (Botrytis cinerea [1]) | pest or weed control at 125 ppm (Botrytis cinerea [1]) | pest or weed control at 125 ppm (Venturia inaequalis) | inhibition of growth at 25 ppm (Colletotrichum acutatum) | inhibition of growth at 25 ppm (Botrytis cinerea [2]) | pest or weed control at 125 ppm [3] | inhibition of growth at 25 ppm (Fusarium graminearum) | inhibition of growth at 25 ppm (Glomerella cingulata)

COC(=O)N(Cc1ccc(Cl)cc1C)NC(=O)c1cc(C)ncc1Oc1cccc(C2CC2)c1F [b-77]
≥ 75%: pest or weed control at 25 ppm (Botrytis cinerea [1]) | pest or weed control at 125 ppm (Botrytis cinerea [1]) | pest or weed control at 125 ppm (Venturia inaequalis) | inhibition of growth at 25 ppm (Colletotrichum acutatum) | inhibition of growth at 25 ppm (Botrytis cinerea [2]) | pest or weed control at 125 ppm [3] | inhibition of growth at 25 ppm (Fusarium graminearum) | inhibition of growth at 25 ppm (Glomerella cingulata)

Cc1ccc(CN(NC(=O)c2cc(C)nnc2Oc2cccc(C3CC3)c2F)C(=O)OC2COC2)c(C)c1 [b-232]
≥ 75%: pest or weed control at 25 ppm (Botrytis cinerea [1]) | pest or weed control at 125 ppm (Botrytis cinerea [1]) | pest or weed control at 125 ppm (Venturia inaequalis) | inhibition of growth at 25 ppm (Colletotrichum acutatum) | inhibition of growth at 25 ppm (Botrytis cinerea [2]) | pest or weed control at 125 ppm [3] | inhibition of growth at 25 ppm (Fusarium graminearum) | inhibition of growth at 25 ppm (Glomerella cingulata)

COC(=O)N(Cc1ccc(Cl)cc1C)NC(=O)c1cc(C)nnc1Oc1cccc(C2CC2)c1F [b-34]
≥ 75%: pest or weed control at 25 ppm (Botrytis cinerea [1]) | pest or weed control at 125 ppm (Botrytis cinerea [1]) | pest or weed control at 125 ppm (Venturia inaequalis) | inhibition of growth at 25 ppm (Colletotrichum acutatum) | inhibition of growth at 25 ppm (Botrytis cinerea [2]) | pest or weed control at 125 ppm [3] | inhibition of growth at 25 ppm (Fusarium graminearum) | inhibition of growth at 25 ppm (Glomerella cingulata)

COC(=O)N(Cc1ccc(OC)cc1C)NC(=O)c1c(Oc2cccc(C3CC3)c2F)nnc(Cl)c1C [b-106]
≥ 75%: pest or weed control at 25 ppm (Botrytis cinerea [1]) | pest or weed control at 125 ppm (Botrytis cinerea [1]) | pest or weed control at 125 ppm (Venturia inaequalis) | inhibition of growth at 25 ppm (Colletotrichum acutatum) | inhibition of growth at 25 ppm (Botrytis cinerea [2]) | pest or weed control at 125 ppm [3] | inhibition of growth at 25 ppm (Fusarium graminearum) | inhibition of growth at 25 ppm (Glomerella cingulata)

Cc1ccc(CN(NC(=O)c2cc(C)nnc2Oc2cccc(C3CC3)c2F)C(=O)OC(C)(C)C)c(C)c1 [b-22]
≥ 75%: pest or weed control at 25 ppm (Botrytis cinerea [1]) | pest or weed control at 125 ppm (Botrytis cinerea [1]) | pest or weed control at 125 ppm (Venturia inaequalis) | inhibition of growth at 25 ppm (Colletotrichum acutatum) | inhibition of growth at 25 ppm (Botrytis cinerea [2]) | pest or weed control at 125 ppm [3] | inhibition of growth at 25 ppm (Fusarium graminearum) | inhibition of growth at 25 ppm (Glomerella cingulata)

COC(=O)N(Cc1ccc(C)cc1C)NC(=O)c1c(Oc2cccc(Cl)c2F)nnc(Cl)c1C [b-227]
≥ 75%: pest or weed control at 25 ppm (Botrytis cinerea [1]) | pest or weed control at 125 ppm (Botrytis cinerea [1]) | pest or weed control at 125 ppm (Venturia inaequalis) | inhibition of growth at 25 ppm (Colletotrichum acutatum) | inhibition of growth at 25 ppm (Botrytis cinerea [2]) | pest or weed control at 125 ppm [3] | inhibition of growth at 25 ppm (Fusarium graminearum) | inhibition of growth at 25 ppm (Glomerella cingulata)
